What was measured:
[1] = tested on: human non-small cell lung cancer (A549) cell lines; assay: Cell survival rate (MTS) of A549 cells; type: cell-based; conditions: for reduction in survival rate: individually administered at concentrations ranging from 2 to 80 nM
Description: (§1) Human cancer cell lines, including non-small cell lung cancer (A549), glioblastoma (U87), glioblastoma (T98G), erythroleukemia type cell line (K-562), acute monocytic leukemia (THP-1), hepatocellular carcinoma (HepG2), colorectal cancer (HCT116), ovarian cancer (TOV-21G), triple-negative breast cancer (MDA-MB-231), or drug-resistant human breast cancer (MCF7-resistant), were cultured in media supplemented with 10% (v/v) fetal bovine serum (FBS) (Penicillin-Streptomycin Solution, ACE Biolabs, CC1009), glutamine-enriched Nutrient Mixture F-12 Ham Kaighn's Modification (F-12/K, SIGMA-ALDRICH, USA), and RPMI-1640 (HiMedia Laboratories LLC, USA). The cell lines were separately incubated in a 5% CO2 atmosphere at 37° C. using a controlled incubator (Astec-SCA-165DS).
(§2) Different cancer cell lines were seeded in 96-well plates and allowed to adhere for 24 hours. Cells were then treated with combinations of three drugs, while untreated cells served as the control group. 20 μL of MTS reagent (Promega, USA) was added to each well and incubated at 37° C. for one hour. Optical density (OD) was measured at 490 nm using an ELISA detector (BioTek EPOCH2) to evaluate the ell viability and proliferation by using the following formula: […]
(§3) In some embodiments of the present invention, drug concentrations used for testing cancer cell lines is in nM and the effective dose range ranged from 0.8 nM to 83 nM.
To evaluate whether the pharmaceutical composition containing various pharmacologically active ions could produce synergistic drug effects, tests were conducted on human non-small cell lung cancer (A549) cell lines. The dose units in Table 2 are expressed in nM. The pharmacologically active ion used in this study was gluconate ion.
To evaluate whether varying dosages of the pharmaceutical composition of the present invention could inhibit the survival rate of human non-small cell lung cancer cell line (A549), cell survival analyses of A549 were conducted.
In this experiment, the pharmacologically active copper ion was cupric in the form of copper gluconate.

[2] = tested on: human non-small cell lung cancer (A549) cell line; assay: In vivo tumor suppression, A549 subcutaneous tumor model in nude mice; set-up: species or system Balb/c nude mice; conditions: A549 tumors in nude mice; for Tumor Weight: after sacrifice
Description: (§4) Female, 5-week-old Balb/c CAnN.Cg-Foxnlnu/CrlNarl nude mice were obtained from the National Laboratory Animal Center. […] Experiments commenced when they reached six weeks of age.
(§5) Nude mice of six weeks of age were used to establish two lung epithelial carcinoma and animal models. 1×10^7 cells of Human non-small cell lung cancer (NSCLC) cell line A549 and of human lung squamous carcinoma cell line H520, provided by the Food Industry Research and Development Institute in Taiwan, were subcutaneously injected 100 μL into the dorsal area near the right hind limb.
A549 model: 6 mice per group, administered orally once daily for 25 days.
(§6) H520 model: 7 mice per group, administered orally once daily for 13 days. The pharmacologically active multivalent ions used were copper ions in the form of copper gluconate.
(§7) Tumor volume was measured weekly using a tumor measurement device (TM900, Peira, Turnhout, Belgium). After five weeks of drug administration, the mice were sacrificed, and tumors were excised from the right hind limb. Tumor volume was calculated based on the longest and shortest diameters using the formula: […]
(§8) The tumors were then weighed and recorded. Tumor inhibition rates were calculated using the control group as a baseline: […]
A tumor model was established in nude mice via subcutaneous injection. Tumor size was monitored for 14 days, after which the mice were divided into six groups and treated with the pharmaceutical composition. The pharmaceutical-using group continued to be fed the test drug by oral gavage.

[3] = tested on: human lung squamous cell carcinoma (H520) cell line; assay: In vivo tumor suppression, H520 subcutaneous tumor model in nude mice; set-up: species or system Balb/c nude mice; conditions: H520 tumors in nude mice
Description: as §4, §5, §6, §7, §8
A tumor model was established in nude mice via subcutaneous injection. Tumor size was measured over 14 days, after which the mice were then divided into six groups and treated with the pharmaceutical composition. The pharmaceutical-using group continued to be fed the test drug by oral gavage. Due to the rapid growth rate of H520 tumors in vivo, animals were sacrificed when tumors reached a specific size. Tumor model nude mice were sacrificed after 13 days of administration to evaluate changes in tumor growth and observe the inhibitory effect of the test drug on tumors.

[4] = tested on: human lung squamous cell carcinoma (H520) cell line; assay: as above; set-up: species or system Balb/c nude mice; conditions: H520 tumors in nude mice, oral once daily
[5] = tested on: glioblastoma (T98G) cell line; assay: Cell survival rate (MTS) of T98G cells; type: cell-based, Human
Description: as §1, §2, §3
To evaluate the inhibitory effect of the pharmaceutical composition of the present invention on the survival rate of glioblastoma (T98G) cell line, analysis on survival rate was performed.
The active copper ion used in this study was copper gluconate.

[6] = tested on: glioblastoma (U-87) cell line; assay: Cell survival rate (MTS) of U-87 cells; type: cell-based, Human
Description: as §1, §2, §3
To evaluate the inhibitory effect of the pharmaceutical composition of the present invention on the survival rate of glioblastoma (U-87) cell line, analysis on survival rate was performed.
The active copper ion used in this study was copper gluconate. […] Using the pharmaceutical composition, the concentrations could be reduced while achieving a higher inhibition rate.

[7] = oral once daily for 25 days, when sacrificed
[8] = oral once daily, Day 7 of administration
[9] = oral once daily for 13 days, when sacrificed

[Ca] [calcium]
Survival Rate (%) ([1]; single agent 1 nM (Table 2)): 103.98%

COc1cc2ncnc(Nc3ccc(F)c(Cl)c3)c2cc1OCCCN1CCOCC1 [Group S4, Gefitinib]
Tumor Weight [2]: 0.197 g | Tumor Volume [2, 7]: 239.6 mm^3 | Tumor Volume [2, 8]: 54.2 mm^3 | Tumor Volume ([2]; oral once daily, Day 11): 69.5 mm^3 | Tumor Volume ([2]; oral once daily, Day 14): 82.0 mm^3 | Tumor Volume ([2]; oral once daily, Day 17): 102.8 mm^3 | Tumor Volume ([2]; oral once daily, Day 20): 141.3 mm^3 | Tumor Volume ([2]; oral once daily, Day 23): 202.6 mm^3 | Tumor Weight ([3]; after sacrifice): 0.981 g | Tumor Volume [3, 9]: 1653.1 mm^3 | Tumor Volume ([3]; oral once daily, Day 7): 506.4 mm^3 | Tumor Volume ([4]; Day 4 of administration): 259.6 mm^3 | Tumor Volume ([4]; Day 9): 898.6 mm^3 | Tumor Volume ([4]; Day 11): 1290.0 mm^3

[Mn+2] [manganese]
Survival Rate (%) ([1]; single agent 1 nM (Table 2)): 104.35%

[Zn+2] [zinc]
Survival Rate (%) ([1]; single agent 1 nM (Table 2)): 104.71%

[Mg] [magnesium]
Survival Rate (%) ([1]; single agent 1 nM (Table 2)): 100.52%

CCN(CC)C(=S)SSC(=S)N(CC)CC [Disulfiram]
Survival Rate (%) ([1]; single agent 1 nM (Table 2)): 99.58% | Survival Rate (%) ([1]; single agent 80 nM (Table 3)): 93.85% | Survival Rate (%) ([5]; single agent 16 nM): 96.37% | Survival Rate (%) ([5]; single agent 41 nM): 97.27% | Survival Rate (%) ([5]; single agent 83 nM): 96.15% | Survival Rate (%) ([6]; single agent 16 nM): 102.66% | Survival Rate (%) ([6]; single agent 41 nM): 101.02% | Survival Rate (%) ([6]; single agent 83 nM): 63.98%

[Fe+2] [ferrous]
Survival Rate (%) ([1]; single agent 1 nM (Table 2)): 106.27%

copper gluconate [cupric]
reduction in survival rate [1]: no significant reduction in survival rate | Survival Rate (%) ([1]; single agent 1 nM (Table 2)): 103.70% | Survival Rate (%) ([1]; single agent 80 nM (Table 3)): 109.28% | Survival Rate (%) ([5]; single agent 16 nM): 102.03% | Survival Rate (%) ([5]; single agent 41 nM): 102.19% | Survival Rate (%) ([5]; single agent 83 nM): 98.35% | Survival Rate (%) ([6]; single agent 16 nM): 103.71% | Survival Rate (%) ([6]; single agent 41 nM): 103.97% | Survival Rate (%) ([6]; single agent 83 nM): 101.73%

O=C(Nc1ccc([N+](=O)[O-])cc1Cl)c1cc(Cl)ccc1O [Niclosamide]
reduction in survival rate [1]: no significant reduction in survival rate | Survival Rate (%) ([1]; single agent 2 nM (Table 3)): 112.66% | Survival Rate (%) ([1]; single agent 6 nM (Table 2)): 98.00% | Survival Rate (%) ([5]; single agent 8 nM): 92.50% | Survival Rate (%) ([5]; single agent 16 nM): 87.87% | Survival Rate (%) ([6]; single agent 8 nM): 89.33% | Survival Rate (%) ([6]; single agent 16 nM): 88.60% | Tumor Weight [2]: 0.330 g | tumor volume inhibition rates compared to Group S1 ([2]; at the time of sacrifice): 12.78% | average tumor weight inhibition rates compared to Group S1 ([2]; following sacrifice): 13.5% | Tumor Volume [2, 7]: 396.1 mm^3 | Tumor Volume [2, 8]: 73.4 mm^3 | Tumor Volume ([2]; oral once daily, Day 11): 89.7 mm^3 | Tumor Volume ([2]; oral once daily, Day 14): 136.3 mm^3 | Tumor Volume ([2]; oral once daily, Day 17): 179.6 mm^3 | Tumor Volume ([2]; oral once daily, Day 20): 219.0 mm^3 | Tumor Volume ([2]; oral once daily, Day 23): 319.8 mm^3 | Tumor Weight ([3]; after sacrifice): 0.955 g | average tumor weight inhibition rates compared to Group S1 ([3]; after sacrifice): 30.5% | tumor volume inhibition rates compared to Group S1 ([3]; at the time of sacrifice): 30.49% | Tumor Volume [3, 9]: 1604.3 mm^3 | Tumor Volume ([3]; oral once daily, Day 7): 538.8 mm^3 | Tumor Volume ([4]; Day 4 of administration): 269.6 mm^3 | Tumor Volume ([4]; Day 9): 802.4 mm^3 | Tumor Volume ([4]; Day 11): 1204.1 mm^3

Source: patent US20260060944A1, “PHARMACEUTICAL COMPOSITION AND USE THEREOF” (priority 2022, published 2026)
